Experimental data taken from the NIST ThermoML archive (doi:10.1016/j.jct.2011.01.014).
Numbers after ± are expanded uncertainties.

Assay: xn = mol fraction of the nth substance listed
Settings: 101 kPa, Liquid; for speed of sound: sound velocity cell; for mass density: Vibrating tube method

CC(=O)[O-].[NH3+]CCO [2-hydroxyethylammonium acetate] + CO
Settings	mass density [kg/m3]	speed of sound [m/s]
305.65 K, x1 = 0.0492	–	1161.1 ± 1.9
305.65 K, x1 = 0.0951	–	1224.5 ± 1.7
305.65 K, x1 = 0.1987	–	1341 ± 1.7
305.65 K, x1 = 0.29	–	1429.3 ± 1.8
305.65 K, x1 = 0.3786	–	1500.3 ± 1.9
305.65 K, x1 = 0.4825	–	1575.7 ± 2
305.65 K, x1 = 0.6007	–	1645.1 ± 2.3
305.65 K, x1 = 0.6711	–	1681.8 ± 2.4
305.65 K, x1 = 0.7797	–	1700.1 ± 2.6
305.65 K, x1 = 0.8297	–	1753.7 ± 2.8
305.65 K, x1 = 0.9328	–	1750.5 ± 3
305.65 K, x1 = 1	–	1773.4 ± 3.2
308.15 K, x1 = 0.0492	832.793 ± 1	1153.3 ± 1.9
308.15 K, x1 = 0.0951	875.068 ± 0.73	1217 ± 1.7
308.15 K, x1 = 0.1987	943.548 ± 0.62	1334 ± 1.7
308.15 K, x1 = 0.29	988.497 ± 0.53	1422.7 ± 1.8
308.15 K, x1 = 0.3786	1021.52 ± 0.55	1494 ± 1.9
308.15 K, x1 = 0.4825	1053.6 ± 0.71	1569.6 ± 2
308.15 K, x1 = 0.6007	1081.57 ± 1	1639.2 ± 2.3
308.15 K, x1 = 0.6711	1095.97 ± 1.2	1675.9 ± 2.4
308.15 K, x1 = 0.7797	1114.95 ± 1.6	1694.5 ± 2.6
308.15 K, x1 = 0.8297	1122.74 ± 1.8	1748 ± 2.8
308.15 K, x1 = 0.9328	1136.52 ± 2.2	1744.9 ± 3
308.15 K, x1 = 1	1143.39 ± 2.5	1767.9 ± 3.2
310.65 K, x1 = 0.0492	830.575 ± 1	1145.6 ± 1.9
310.65 K, x1 = 0.0951	872.975 ± 0.73	1209.6 ± 1.7
310.65 K, x1 = 0.1987	941.654 ± 0.62	1327 ± 1.7
310.65 K, x1 = 0.29	986.73 ± 0.53	1416 ± 1.8
310.65 K, x1 = 0.3786	1019.84 ± 0.55	1487.6 ± 1.9
310.65 K, x1 = 0.4825	1052.01 ± 0.71	1563.5 ± 2
310.65 K, x1 = 0.6007	1080.07 ± 0.99	1633.3 ± 2.3
310.65 K, x1 = 0.6711	1094.53 ± 1.2	1670.1 ± 2.4
310.65 K, x1 = 0.7797	1113.51 ± 1.6	1689 ± 2.6
310.65 K, x1 = 0.8297	1121.32 ± 1.8	1742.3 ± 2.8
310.65 K, x1 = 0.9328	1135.08 ± 2.2	1739.3 ± 3
310.65 K, x1 = 1	1141.96 ± 2.5	1762.5 ± 3.2
313.15 K, x1 = 0.0492	828.348 ± 1	1137.8 ± 1.9
313.15 K, x1 = 0.0951	870.876 ± 0.74	1202.1 ± 1.7
313.15 K, x1 = 0.1987	939.757 ± 0.62	1320 ± 1.7
313.15 K, x1 = 0.29	984.961 ± 0.53	1409.3 ± 1.8
313.15 K, x1 = 0.3786	1018.17 ± 0.55	1481.3 ± 1.9
313.15 K, x1 = 0.4825	1050.42 ± 0.71	1557.5 ± 2
313.15 K, x1 = 0.6007	1078.57 ± 0.99	1627.4 ± 2.3
313.15 K, x1 = 0.6711	1093.07 ± 1.2	1664.3 ± 2.4
313.15 K, x1 = 0.7797	1112.05 ± 1.6	1683.4 ± 2.6
313.15 K, x1 = 0.8297	1119.91 ± 1.8	1736.7 ± 2.8
313.15 K, x1 = 0.9328	1133.64 ± 2.2	1733.8 ± 3
313.15 K, x1 = 1	1140.55 ± 2.5	1757.2 ± 3.2
315.65 K, x1 = 0.0492	826.113 ± 1.1	1130.1 ± 1.9
315.65 K, x1 = 0.0951	868.768 ± 0.74	1194.7 ± 1.7
315.65 K, x1 = 0.1987	937.855 ± 0.62	1313.1 ± 1.7
315.65 K, x1 = 0.29	983.188 ± 0.53	1402.7 ± 1.8
315.65 K, x1 = 0.3786	1016.49 ± 0.55	1475 ± 1.9
315.65 K, x1 = 0.4825	1048.81 ± 0.71	1551.4 ± 2
315.65 K, x1 = 0.6007	1077.07 ± 0.99	1621.4 ± 2.3
315.65 K, x1 = 0.6711	1091.61 ± 1.2	1658.5 ± 2.4
315.65 K, x1 = 0.7797	1110.6 ± 1.6	1678 ± 2.6
315.65 K, x1 = 0.8297	1118.54 ± 1.8	1731.2 ± 2.8
315.65 K, x1 = 0.9328	1132.26 ± 2.2	1728.4 ± 3
315.65 K, x1 = 1	1139.18 ± 2.5	1751.9 ± 3.2
318.15 K, x1 = 0.0492	823.867 ± 1.1	1122.4 ± 1.9
318.15 K, x1 = 0.0951	866.652 ± 0.74	1187.2 ± 1.7
318.15 K, x1 = 0.1987	935.943 ± 0.63	1306 ± 1.7
318.15 K, x1 = 0.29	981.405 ± 0.53	1396.1 ± 1.8
318.15 K, x1 = 0.3786	1014.8 ± 0.55	1468.6 ± 1.9
318.15 K, x1 = 0.4825	1047.21 ± 0.71	1545.3 ± 2
318.15 K, x1 = 0.6007	1075.56 ± 0.98	1615.5 ± 2.3
318.15 K, x1 = 0.6711	1090.14 ± 1.2	1652.7 ± 2.4
318.15 K, x1 = 0.7797	1109.14 ± 1.6	1672.5 ± 2.6
318.15 K, x1 = 0.8297	1117.15 ± 1.7	1725.7 ± 2.8
318.15 K, x1 = 0.9328	1130.88 ± 2.2	1723 ± 3
318.15 K, x1 = 1	1137.82 ± 2.5	1746.5 ± 3.2
320.65 K, x1 = 0.0492	821.611 ± 1.1	1114.8 ± 1.9
320.65 K, x1 = 0.0951	864.531 ± 0.74	1179.8 ± 1.7
320.65 K, x1 = 0.1987	934.029 ± 0.63	1299.1 ± 1.7
320.65 K, x1 = 0.29	979.623 ± 0.53	1389.4 ± 1.8
320.65 K, x1 = 0.3786	1013.12 ± 0.55	1462.3 ± 1.9
320.65 K, x1 = 0.4825	1045.59 ± 0.7	1539.3 ± 2
320.65 K, x1 = 0.6007	1074.05 ± 0.98	1609.6 ± 2.3
320.65 K, x1 = 0.6711	1088.66 ± 1.2	1646.9 ± 2.4
320.65 K, x1 = 0.7797	1107.66 ± 1.6	1667 ± 2.6
320.65 K, x1 = 0.8297	1115.77 ± 1.7	1720.2 ± 2.8
320.65 K, x1 = 0.9328	1129.49 ± 2.2	1717.6 ± 3
320.65 K, x1 = 1	1136.45 ± 2.5	1741.3 ± 3.2
323.15 K, x1 = 0.0492	819.344 ± 1.1	1107 ± 2
323.15 K, x1 = 0.0951	862.394 ± 0.76	1172.3 ± 1.7
323.15 K, x1 = 0.1987	932.105 ± 0.64	1292.1 ± 1.8
323.15 K, x1 = 0.29	977.831 ± 0.54	1382.7 ± 1.8
323.15 K, x1 = 0.3786	1011.42 ± 0.55	1455.9 ± 1.9
323.15 K, x1 = 0.4825	1043.94 ± 0.7	1533.2 ± 2
323.15 K, x1 = 0.6007	1072.54 ± 0.98	1603.7 ± 2.3
323.15 K, x1 = 0.6711	1087.18 ± 1.2	1641.1 ± 2.4
323.15 K, x1 = 0.7797	1106.19 ± 1.5	1661.7 ± 2.7
323.15 K, x1 = 0.8297	1114.37 ± 1.7	1714.7 ± 2.8
323.15 K, x1 = 0.9328	1128.1 ± 2.2	1712.3 ± 3
323.15 K, x1 = 1	1135.08 ± 2.5	1736 ± 3.2
